Biological target: LRRK2 G2019S (Homo sapiens, UniProt Q5S007, G2019S)
Assay: LRRK2 G2019S Km ATP LanthaScreen assay
Type: biochemical
Conditions: for IC50: read-out: LRRK2 pIC50 (converted)

Chain of LRRK2 G2019S (Q5S007 whole entry G2019S): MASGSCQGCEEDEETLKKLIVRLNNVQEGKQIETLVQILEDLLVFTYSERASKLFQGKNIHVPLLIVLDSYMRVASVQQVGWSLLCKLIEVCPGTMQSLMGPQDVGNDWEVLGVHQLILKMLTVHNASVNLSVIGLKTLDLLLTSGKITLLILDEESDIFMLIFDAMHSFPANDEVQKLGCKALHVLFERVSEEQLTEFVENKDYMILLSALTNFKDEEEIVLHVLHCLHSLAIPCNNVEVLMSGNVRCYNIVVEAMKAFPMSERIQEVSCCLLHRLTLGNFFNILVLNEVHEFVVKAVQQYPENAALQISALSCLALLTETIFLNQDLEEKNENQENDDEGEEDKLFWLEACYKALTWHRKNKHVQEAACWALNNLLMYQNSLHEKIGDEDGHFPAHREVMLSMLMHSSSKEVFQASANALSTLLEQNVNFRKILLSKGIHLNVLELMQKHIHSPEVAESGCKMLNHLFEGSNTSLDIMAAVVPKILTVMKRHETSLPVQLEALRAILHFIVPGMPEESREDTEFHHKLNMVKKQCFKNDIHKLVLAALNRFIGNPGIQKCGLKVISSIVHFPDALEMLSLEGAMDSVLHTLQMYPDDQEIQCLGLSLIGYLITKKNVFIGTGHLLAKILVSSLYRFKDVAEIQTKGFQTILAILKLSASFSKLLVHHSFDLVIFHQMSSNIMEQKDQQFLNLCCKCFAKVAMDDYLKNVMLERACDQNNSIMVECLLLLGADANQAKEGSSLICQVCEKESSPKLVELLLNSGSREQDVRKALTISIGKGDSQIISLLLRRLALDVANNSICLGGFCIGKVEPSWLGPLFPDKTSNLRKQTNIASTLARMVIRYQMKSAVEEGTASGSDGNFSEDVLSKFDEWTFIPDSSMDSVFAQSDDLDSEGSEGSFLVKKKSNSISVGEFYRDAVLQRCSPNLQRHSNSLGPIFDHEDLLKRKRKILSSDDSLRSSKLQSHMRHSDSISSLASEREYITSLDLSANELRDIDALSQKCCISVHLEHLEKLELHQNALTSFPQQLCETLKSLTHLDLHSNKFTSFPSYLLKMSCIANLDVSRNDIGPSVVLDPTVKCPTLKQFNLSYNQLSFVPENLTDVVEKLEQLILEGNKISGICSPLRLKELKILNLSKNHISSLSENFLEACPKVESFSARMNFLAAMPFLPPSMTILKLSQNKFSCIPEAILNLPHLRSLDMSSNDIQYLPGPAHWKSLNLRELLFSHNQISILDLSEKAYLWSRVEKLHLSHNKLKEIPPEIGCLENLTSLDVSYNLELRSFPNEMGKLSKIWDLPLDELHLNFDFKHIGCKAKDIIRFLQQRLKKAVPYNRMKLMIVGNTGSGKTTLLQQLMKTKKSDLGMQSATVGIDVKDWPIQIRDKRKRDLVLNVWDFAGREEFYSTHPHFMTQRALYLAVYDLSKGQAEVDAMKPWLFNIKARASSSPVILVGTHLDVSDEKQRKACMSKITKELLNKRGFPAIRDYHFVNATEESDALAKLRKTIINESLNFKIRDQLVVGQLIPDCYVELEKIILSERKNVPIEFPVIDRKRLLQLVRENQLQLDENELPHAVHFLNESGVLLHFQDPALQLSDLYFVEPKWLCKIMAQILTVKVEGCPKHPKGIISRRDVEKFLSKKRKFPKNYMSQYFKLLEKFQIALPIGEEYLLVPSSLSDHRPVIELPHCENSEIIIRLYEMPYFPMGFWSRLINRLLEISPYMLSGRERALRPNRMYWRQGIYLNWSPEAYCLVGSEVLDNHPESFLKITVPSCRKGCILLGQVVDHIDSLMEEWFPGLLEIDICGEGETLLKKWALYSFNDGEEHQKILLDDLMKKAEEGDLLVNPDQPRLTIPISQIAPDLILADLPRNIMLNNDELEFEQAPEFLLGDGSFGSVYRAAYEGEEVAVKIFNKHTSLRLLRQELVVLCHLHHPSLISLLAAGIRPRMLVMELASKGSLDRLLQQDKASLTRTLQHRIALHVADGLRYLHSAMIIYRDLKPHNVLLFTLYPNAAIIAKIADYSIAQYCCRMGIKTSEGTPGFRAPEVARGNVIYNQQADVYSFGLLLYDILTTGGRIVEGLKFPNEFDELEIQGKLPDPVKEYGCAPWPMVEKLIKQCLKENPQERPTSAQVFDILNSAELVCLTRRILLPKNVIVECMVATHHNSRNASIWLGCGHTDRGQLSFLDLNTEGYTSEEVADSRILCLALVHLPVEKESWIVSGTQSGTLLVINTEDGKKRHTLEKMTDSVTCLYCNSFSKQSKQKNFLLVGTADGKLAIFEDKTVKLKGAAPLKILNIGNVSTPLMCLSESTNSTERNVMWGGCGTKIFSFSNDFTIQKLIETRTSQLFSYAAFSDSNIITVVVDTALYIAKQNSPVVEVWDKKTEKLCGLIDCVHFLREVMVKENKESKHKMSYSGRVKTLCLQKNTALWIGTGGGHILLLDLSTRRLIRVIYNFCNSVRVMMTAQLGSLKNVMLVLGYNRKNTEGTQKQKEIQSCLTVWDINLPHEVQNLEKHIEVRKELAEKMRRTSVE

| Structure (SMILES) | IC50 [nM] | LRRK2 pIC50 |
| --- | --- | --- |
| Cc1cc2cnc(NC(=O)C3CC3C(F)F)cc2cc1C1CCN(C2(C)COCC2O)CC1 (centres unmarked) [Ex-2.53] | 0.813 |  |
| Cc1cc2cnc(NC(=O)C3CC3C(F)F)cc2cc1C1CCN(C2(C)COCC2O)CC1 (centres unmarked) [Ex-2.54] | 0.49 |  |
| Cc1cc2cnc(NC(=O)C3CC3C(F)F)cc2cc1C1CCN(C2(C)COCC2O)CC1 (centres unmarked) [Ex-2.55] | 3.98 |  |
| Cc1cc2cnc(NC(=O)C3CC3C(F)F)cc2cc1C1CCN(C2(C)COCC2O)CC1 (centres unmarked) [Ex-2.56] | 1.58 |  |
| CC1(C)CC(C(=O)Nc2cc3cc(C4(C#N)CC45CC5)ccc3cn2)CCO1 (centres unmarked) [Ex-2.57] | 2.14 |  |
| CC1(C)CC(C(=O)Nc2cc3cc(C4(C#N)CC45CC5)ccc3cn2)CCO1 (centres unmarked) [Ex-2.58] | 11.2 |  |
| CC1(N2CCC(c3cc4cc(NC(=O)C5CCC(C(F)(F)F)OC5)ncc4cc3Cl)CC2)COCC1O (centres unmarked) [Ex-2.59] | 5.13 |  |
| CC1(N2CCC(c3cc4cc(NC(=O)C5CCC(C(F)(F)F)OC5)ncc4cc3Cl)CC2)COCC1O (centres unmarked) [Ex-2.60] | 47.9 |  |
| CC1(N2CCC(c3cc4cc(NC(=O)C5CCC(C(F)(F)F)OC5)ncc4cc3Cl)CC2)COCC1O (centres unmarked) [Ex-2.61] | 43.7 |  |
| CC1(N2CCC(c3cc4cc(NC(=O)C5CCC(C(F)(F)F)OC5)ncc4cc3Cl)CC2)COCC1O (centres unmarked) [Ex-2.62] | 5.13 |  |
| N#CC1(c2ccc3cnc(NC(=O)C4CC45CCOC5)cc3c2)CC12CC2 (centres unmarked) [Ex-2.63] | 12.3 |  |
| N#CC1(c2ccc3cnc(NC(=O)C4CC45CCOC5)cc3c2)CC12CC2 (centres unmarked) [Ex-2.64] | 10.5 |  |
| N#CC1(c2ccc3cnc(NC(=O)C4CC45CCOC5)cc3c2)CC12CC2 (centres unmarked) [Ex-2.65] | 25.7 |  |
| N#CC1(c2ccc3cnc(NC(=O)C4CC45CCOC5)cc3c2)CC12CC2 (centres unmarked) [Ex-2.66] | 14.5 |  |
| Cn1ccc(C2CC2C(=O)Nc2cc3cc(C4(C#N)CC45CC5)ccc3cn2)n1 (centres unmarked) [Ex-2.71] | 5.75 |  |
| Cn1ccc(C2CC2C(=O)Nc2cc3cc(C4(C#N)CC45CC5)ccc3cn2)n1 (centres unmarked) [Ex-2.72] | 3.31 |  |
| Cn1cc(N2CCC(C(=O)Nc3cc4cc(C5(C#N)CC56CC6)ccc4cn3)C2)cn1 (centres unmarked) [Ex-2.76] | 26.3 |  |
| Cn1cc(N2CCC(C(=O)Nc3cc4cc(C5(C#N)CC56CC6)ccc4cn3)C2)cn1 (centres unmarked) [Ex-2.77] | 10.2 |  |
| Cn1ncc(C2CC2C(=O)Nc2cc3cc(C4(C#N)CC45CC5)ccc3cn2)c1Cl (centres unmarked) [Ex-2.78] | 16.2 |  |
| Cn1ncc(C2CC2C(=O)Nc2cc3cc(C4(C#N)CC45CC5)ccc3cn2)c1Cl (centres unmarked) [Ex-2.79] | 34.7 |  |
| CC1C(C(=O)Nc2cc3cc(C4CCN(C5(C)COCC5F)CC4)c(Cl)cc3cn2)C1c1cnn(C)c1 (centres unmarked) [Ex-2.80] | 0.0813 |  |
| CCOC1CC2(C1)CC2C(=O)Nc1cc2cc(C3CCN(C4(C)COCC4F)CC3)c(Cl)cc2cn1 (centres unmarked) [Ex-2.82] | 0.0813 |  |
| Cn1ccc(C2CC2C(=O)Nc2cc3cc(C4CCN(C5(C)COCC5F)CC4)c(Cl)cc3cn2)n1 (centres unmarked) [Ex-2.84] | 0.0813 |  |

| Structure (SMILES) | IC50 [nM] | LRRK2 pIC50 |
| --- | --- | --- |
| CCC1C(C(=O)Nc2cc3cc(C4CCN(C5(C)COCC5F)CC4)c(Cl)cc3cn2)C1c1ccn(C)n1 (centres unmarked) [Ex-2.86] | 0.0813 |  |
| CC1(c2ccccn2)CC1C(=O)Nc1cc2cc(C3CCN(C4(C)COCC4O)CC3)c(Cl)cc2cn1 (centres unmarked) [Ex-2.90] | 52.5 |  |
| CC1(c2ccccn2)CC1C(=O)Nc1cc2cc(C3CCN(C4(C)COCC4O)CC3)c(Cl)cc2cn1 (centres unmarked) [Ex-2.91] | 240 |  |
| CC1(N2CCC(c3cc4cc(NC(=O)C5CC5C5CCOCC5)ncc4cc3Cl)CC2)COCC1F (centres unmarked) [Ex-2.92] | 0.0813 |  |
| CC1(N2CCC(c3cc4cc(NC(=O)C5CCC5C#N)ncc4cc3Cl)CC2)COCC1F (centres unmarked) [Ex-2.94] | 0.0813 |  |
| CC1(N2CCC(c3cc4cc(NC(=O)C5CC56CC6)ncc4cc3Cl)CC2)COCC1F (centres unmarked) [Ex-2.96] | 0.0813 |  |
| CCC1C(C(=O)Nc2cc3cc(C4CC45CC5)c(Cl)cc3cn2)C1c1cnn(C)c1 (centres unmarked) [Ex-2.98] | 15.5 |  |
| CCC1C(C(=O)Nc2cc3cc(C4CC45CC5)c(Cl)cc3cn2)C1c1cnn(C)c1 (centres unmarked) [Ex-2.99] | 117 |  |
| CC(C(=O)Nc1cc2cc(C3CCN(C4(C)CCOC4O)CC3)c(Cl)cc2cn1)C1CCOCC1 (centres unmarked) [Ex-2.104] | 0.661 |  |
| CC(C(=O)Nc1cc2cc(C3CCN(C4(C)COCC4O)CC3)c(Cl)cc2cn1)c1cnn(C)c1 (centres unmarked) [Ex-2.106] | 0.288 |  |
| CC(C(=O)Nc1cc2cc(C3CCN(C4(C)COCC4O)CC3)c(Cl)cc2cn1)c1cnn(C)c1 (centres unmarked) [Ex-2.107] | 0.661 |  |
| CC(C(=O)Nc1cc2cc(C3(C#N)CC34CC4)ccc2cn1)c1cnn(C)c1 (centres unmarked) [Ex-2.108] | 2.95 |  |
| CC(C(=O)Nc1cc2cc(C3(C#N)CC34CC4)ccc2cn1)c1cnn(C)c1 (centres unmarked) [Ex-2.109] | 1.91 |  |
| CC(C(=O)Nc1cc2cc(C3(C#N)CC34CC4)ccc2cn1)c1cnn(C)c1 (centres unmarked) [Ex-2.110] | 0.575 |  |
| CC(C(=O)Nc1cc2cc(C3(C#N)CC34CC4)ccc2cn1)c1cnn(C)c1 (centres unmarked) [Ex-2.111] | 2.24 |  |
| CCC(=O)N1CCC(C(C)C(=O)Nc2cc3cc(C4(C#N)CC45CC5)ccc3cn2)CC1 (centres unmarked) [Ex-2.112] | 135 |  |
| CCC(=O)N1CCC(C(C)C(=O)Nc2cc3cc(C4(C#N)CC45CC5)ccc3cn2)CC1 (centres unmarked) [Ex-2.113] | 28.2 |  |
| CC1(N2CCC(c3cc4cc(NC(=O)[C@H]5CCCO5)ncc4cc3Cl)CC2)COCC1O (some centres unmarked) [Ex-3.2] | 1.15 |  |
| CC1(N2CCC(c3cc4cc(NC(=O)C5(Cn6ccnc6)CC5)ncc4cc3Cl)CC2)COCC1O (centres unmarked) [Ex-3.3] | 3.31 |  |
| CC1(N2CCC(c3cc4cc(NC(=O)C5CC5F)ncc4cc3Cl)CC2)COCC1O (centres unmarked) [Ex-3.4] | 1.55 |  |
| Cn1cc(C(=O)Nc2cc3cc(C4CCN(C5COCC5O)CC4)c(Cl)cc3cn2)cn1 (centres unmarked) [Ex-3.5] | 0.631 |  |
| CC1(N2CCC(c3cc4cc(NC(=O)Cc5ccccn5)ncc4cc3Cl)CC2)COCC1O (centres unmarked) [Ex-3.6] | 0.24 |  |
| CC1(N2CCC(c3cc4cc(NC(=O)Cc5cccnc5)ncc4cc3Cl)CC2)COCC1O (centres unmarked) [Ex-3.7] | 0.0813 |  |

| Structure (SMILES) | IC50 [nM] | LRRK2 pIC50 |
| --- | --- | --- |
| CC1(N2CCC(c3cc4cc(NC(=O)Cc5ccncc5)ncc4cc3Cl)CC2)COCC1O (centres unmarked) [Ex-3.8] |  | 10.09 |
| CC1(N2CCC(c3cc4cc(NC(=O)Cn5cc(Cl)cn5)ncc4cc3Cl)CC2)COCC1O (centres unmarked) [Ex-3.9] | 0.977 |  |
| CC1(N2CCC(c3cc4cc(NC(=O)Cn5ccc(C(F)(F)F)n5)ncc4cc3Cl)CC2)COCC1O (centres unmarked) [Ex-3.10] | 1 |  |
| CC1(N2CCC(c3cc4cc(NC(=O)Cc5cnn(C(F)F)c5)ncc4cc3Cl)CC2)COCC1O (centres unmarked) [Ex-3.11] | 0.631 |  |
| Cn1cc(CC(=O)Nc2cc3cc(C4CCN(C5(C)COCC5O)CC4)c(Cl)cc3cn2)c(Cl)n1 (centres unmarked) [Ex-3.12] | 0.251 |  |
| CC(=O)Nc1cc2cc(C3CCN(C4COC4)CC3)c(Cl)cc2cn1 [Ex-7.1, N-(7-chloro-6-(1-(oxetan-3-yl)piperidin-4-yl)isoquinolin-3-yl)acetamide] | 11.5 |  |
| CC1(C(=O)Nc2cc3cc(C4CCN(C5COC5)CC4)c(Cl)cc3cn2)CC1 [Ex-7.3, N-(7-chloro-6-(1-(oxetan-3-yl)piperidin-4-yl)isoquinolin-3-yl)-1-methylcyclopropane-1-carboxamide] | 16.6 |  |
| O=C(Nc1cc2cc(C3CCN(C4COC4)CC3)c(Cl)cc2cn1)C1CCC1 [Ex-7.4, N-(7-chloro-6-(1-(oxetan-3-yl)piperidin-4-yl)isoquinolin-3-yl)cyclobutanecarboxamide] | 5.89 |  |
| O=C(Nc1cc2cc(C3CCN(C4COC4)CC3)c(Cl)cc2cn1)C1CCCC1 [Ex-7.5, N-(7-chloro-6-(1-(oxetan-3-yl)piperidin-4-yl)isoquinolin-3-yl)cyclopentanecarboxamide] | 5.5 |  |
| O=C(Nc1cc2cc(C3CCN(C4COC4)CC3)c(Cl)cc2cn1)C1CC1 [Ex-7.6, N-(7-chloro-6-(1-(oxetan-3-yl)piperidin-4-yl)isoquinolin-3-yl)cyclopropanecarboxamide] | 2.14 |  |
| CC1(N2CCC(c3cc4cc(NC(=O)C56CC(C5)C6)ncc4cc3Cl)CC2)COC1 [Ex-7.7, N-(7-chloro-6-(1-(3-methyloxetan-3-yl)piperidin-4-yl)isoquinolin-3-yl)bicyclo[1.1.1]pentane-1-carboxamide] | 9.12 |  |
| O=C(Nc1cc2cc(C3CCN(C4COC4)CC3)c(Cl)cc2cn1)C1(F)CC1 [Ex-7.8, N-(7-chloro-6-(1-(oxetan-3-yl)piperidin-4-yl)isoquinolin-3-yl)-1-fluorocyclopropane-1-carboxamide] | 9.12 |  |
| O=C(Nc1cc2cc(C3CCOCC3)c(Cl)cc2cn1)C1CC12CCOCC2 (centres unmarked) [Ex-7.10, N-(7-chloro-6-(tetrahydro-2H-pyran-4-yl)isoquinolin-3-yl)-6-oxaspiro[2.5]octane-1-carboxamide] | 2.75 |  |
| O=C(Nc1cc2cc(C3CCN(C4COC4)CC3)c(Cl)cc2cn1)C1CC12CC2 (centres unmarked) [Ex-9.1] |  | 8.69 |
| CCC1C(C(=O)Nc2cc3cc(C4CC(C#N)C4)c(Cl)cc3cn2)C1c1cnn(C)c1 (centres unmarked) [Ex-9.17, N-(7-chloro-6-(3-cyanocyclobutyl)isoquinolin-3-yl)-2-ethyl-3-(1-methyl-1H-pyrazol-4-yl)cyclopropane-1-carboxamide] | 33.1 |  |
| CCC1C(C(=O)Nc2cc3cc(C4CC(C#N)C4)c(Cl)cc3cn2)C1c1cnn(C)c1 (centres unmarked) [Ex-9.18, N-(7-chloro-6-(3-cyanocyclobutyl)isoquinolin-3-yl)-2-ethyl-3-(1-methyl-1H-pyrazol-4-yl)cyclopropane-1-carboxamide] | 22.4 |  |
| O=C(Nc1cc2cc(C3CCN(C4CS(=O)(=O)C4)CC3)c(Cl)cc2cn1)C1CC1 [Ex-13.5] | 4.17 |  |
| CC1(N2CCC(c3cc4cc(NC(=O)C5CC5)ncc4cc3Cl)C(F)C2)COC1 (centres unmarked) [Ex-14.3, N-(7-chloro-6-(3-fluoro-1-(3-methyloxetan-3-yl)piperidin-4-yl)isoquinolin-3-yl)cyclopropanecarboxamide] | 0.589 |  |
| Cc1cc2cnc(NC(=O)C3CC3)cc2cc1C1CCN(C2(C)COC2)CC1 [Ex-15.1] | 3.24 |  |
| N#CC1(c2ccc3cnc(NC(=O)C4CC4)cc3c2)CC1 [Ex-17.1] | 19.1 |  |
| N#CC1(c2ccc3cnc(NC(=O)C4CC4)cc3c2)CCC1 [Ex-17.2] | 14.5 |  |
| Cn1ncc(C2CC2C(=O)Nc2cc3cc(C4CCN(C5(C)COCC5O)CC4)c(Cl)cc3cn2)n1 [Ex-20.1, (1R,2R and 1S,2S)-N-(7-chloro-6-(1-(4-hydroxy-3-methyltetrahydrofuran-3-yl)piperidin-4-yl)isoquinolin-3-yl)-2-(2-methyl-2H-1,2,3-triazol-4-yl)cyclopropane-1-carboxamide] |  | 10.09 |

From patent publication US20240398784A1, “C-LINKED ISOQUINOLINE AMIDES AS LRRK2 INHIBITORS, PHARMACEUTICAL COMPOSITIONS, AND USES THEREOF” (Merck Sharp & Dohme LLC, priority 2021, published 2024)
